Source: patent US20050267182A1, “Urea derivatives as FLT-3 modulators” (Ambit Biosciences Corporation, priority 2003, published 2005)

Columns and labels:
CS0002 = experiment: Cell Assay: CS0002; format: cell-based; conditions: cell assay code CS0002
FLT3 = target: T1, FLT3 (Homo sapiens, UniProt P36888); experiment: Binding constant (Kd) measurement, phage-displayed kinase competition binding assay; conditions: for Binding Assay: FLT3(DKIN): FLT3(DKIN) construct; for Binding Assay: FLT3(JMminus): FLT3(JMminus) construct
T1 construct: FLT3(DKIN); made in house
T1 sequence (P36888 610-943 limits assumed): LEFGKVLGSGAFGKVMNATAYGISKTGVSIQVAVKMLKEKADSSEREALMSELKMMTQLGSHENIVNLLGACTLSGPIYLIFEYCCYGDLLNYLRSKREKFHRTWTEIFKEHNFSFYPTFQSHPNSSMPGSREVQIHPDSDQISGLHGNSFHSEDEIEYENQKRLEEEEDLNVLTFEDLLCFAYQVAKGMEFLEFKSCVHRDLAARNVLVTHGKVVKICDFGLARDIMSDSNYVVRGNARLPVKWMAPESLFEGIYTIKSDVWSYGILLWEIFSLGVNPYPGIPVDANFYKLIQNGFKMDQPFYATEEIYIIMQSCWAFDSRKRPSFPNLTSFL
From the text: Binding Constant (Kd) Measurements for Small-Molecule-Kinase Interactions
The term “ND” represents non-determined values.

CS0005 = experiment: Cell Assay: CS0005; format: cell-based; conditions: cell assay code CS0005
MV4,11 cells = experiment: FLT3 assay using MV4,11 cells (cellular proliferation, MTS); format: cell-based, human; conditions: cell assay code CS0001
Outline: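 MV4,11 AML cells, […] switch to DMEM/10% FBS overnight, plated at 10,000 cells/well and exposed to serially diluted compounds in duplicate for 3 days at 37° C., 5% CO2. Proliferation read by MTS added for 2 h.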

Row | Compound | Cell Assay: CS0002:IC50 (CS0002) | Binding Assay: FLT3(DKIN) (FLT3) | Cell Assay: CS0005:IC50 (CS0005) | Cell Assay: CS0001:IC50 (MV4,11 cells) | IC50 (CS0002) [µM] | Binding Assay: FLT3(JMminus) (FLT3)
1 | CC(C)(C)c1cc(NC(=O)Nc2ccc(NC(=O)c3cc4cc(Br)ccc4s3)cc2)no1 [Compound N126] | + + + | + + + + | + + + + | + + + + | – | –
2 | CC(C)(C)c1cc(NC(=O)Nc2ccc(CCc3ccc(N)cc3)cc2)no1 [Compound A3] | + + | + + + + | + + + + | + + + + | – | –
3 | CC(C)(C)c1cc(NC(=O)Nc2ccc(C(=O)Nc3nccnc3N)cc2)no1 [Compound N157] | – | – | + + + + | + + + + | > 10 | + + + +
4 | COC(=O)c1ccc(C(=O)Nc2ccc(NC(=O)Nc3cc(C(C)(C)C)on3)cc2)nc1 [Compound N113] | – | + + + + | + + + + | + + + + | > 10 | –
5 | CC(C)(C)c1cc(NC(=O)Nc2ccc(Nc3nc(Cl)nc4[nH]cnc34)cc2)no1 [Compound O4] | + + | + + + + | + + + + | + + + + | – | –
6 | CC(C)(C)c1cc(NC(=O)Nc2ccc(OCc3ccccc3F)cc2)no1 [Compound G12, 1-(4-(2-fluorobenzyloxy)phenyl)-3-(5-tert-butylisoxazol-3-yl)urea] | + + | + + + + | + + + + | + + + + | – | –
7 | CC(C)(C)c1cc(NC(=O)Nc2ccc(OCc3ccc(-c4ccccc4)cc3)cc2)no1 [Compound G56] | – | + + + + | + + + + | + + + + | – | –
8 | CC(C)(C)c1cc(NC(=O)Nc2ccc(NC(=O)c3cc4cccc5c4n(c3=O)CC5)cc2)no1 [Compound N60] | – | + + + + | + + + + | + + + + | > 10 | –
9 | CC(C)(C)c1cc(NC(=O)Nc2ccc(NC(=O)/C=C/c3ccccc3Cl)cc2)no1 [Compound N40] | – | + + + + | + + + + | + + + + | > 10 | –
10 | CC(C)(C)c1cc(NC(=O)Nc2ccc(OCc3ccc(F)cc3)cc2)no1 [Compound G35] | – | + + + + | + + + | + + + + | > 10 | –
11 | CC(C)(C)c1cc(NC(=O)Nc2ccc(-c3nc(-c4ccc(Cl)cc4)no3)cc2)no1 [Compound P7] | – | + + + + | + + + | + + + + | > 10 | –
12 | COc1cc(C(=O)Nc2ccc(NC(=O)Nc3cc(C(C)(C)C)on3)cc2)nc2ccccc12 [Compound N137] | + + | + + + + | + + + | + + + + | – | –
13 | CC(C)(C)c1cc(NC(=O)Nc2ccc(OC/C=C/c3ccccc3Cl)cc2)no1 [Compound G26] | + + | + + + + | + + + + | + + + + | – | –
14 | CC(C)(C)c1cc(NC(=O)Nc2ccc(NC(=O)c3cccc[n+]3[O-])cc2)no1 [Compound N81] | – | – | + + + + | + + + + | > 10 | + + + +
15 | COc1ccnc(Nc2ccc(C(=O)Nc3ccc(NC(=O)Nc4cc(C(C)(C)C)on4)cc3)cc2)n1 [Compound N51] | + + | + + + + | + + + + | + + + + | – | –
16 | CC(C)(C)c1cc(NC(=O)Nc2ccc(-c3nc(-c4cccc5ccccc45)no3)cc2)no1 [Compound P5] | – | + + + + | + + + | + + + + | > 10 | –
17 | CC(C)(C)c1cc(NC(=O)Nc2ccc(NC(=O)c3cccc(F)n3)cc2)no1 [Compound N8] | – | + + + + | + + + + | + + + + | > 10 | –
18 | CC(C)(C)c1cc(NC(=O)Nc2ccc(NC(=O)c3ccc4ccccc4c3)cc2)no1 [Compound N28] | – | + + + + | + + + + | + + + + | – | –
19 | Cc1nn(C)c(Cl)c1C(=O)Nc1ccc(NC(=O)Nc2cc(C(C)(C)C)on2)cc1 [Compound N116] | + + | + + + + | + + + + | + + + + | – | –
20 | CC(C)(C)c1cc(NC(=O)Nc2ccc(OCC3CC3)cc2)no1 [Compound G37] | + + | + + + + | + + + | + + + + | – | –

Row | Compound | Cell Assay: CS0002:IC50 (CS0002) | Binding Assay: FLT3(DKIN) (FLT3) | Cell Assay: CS0005:IC50 (CS0005) | Cell Assay: CS0001:IC50 (MV4,11 cells) | IC50 (CS0002) [µM] | Binding Assay: FLT3(JMminus) (FLT3)
21 | Cc1ccc(C(=O)Nc2ccc(NC(=O)Nc3cc(C(C)(C)C)on3)cc2)cc1 [Compound N92] | – | + + + + | + + + + | + + + + | > 10 | –
22 | CSc1ncc(Br)c(C(=O)Nc2ccc(NC(=O)Nc3cc(C(C)(C)C)on3)cc2)n1 [Compound N114] | + + | + + + + | + + + | + + + + | – | –
23 | CC(C)(C)c1cc(NC(=O)Nc2ccc(NC(=O)c3ccc4ncccc4c3)cc2)no1 [Compound N151] | – | + + + + | + + + + | + + + + | > 10 | –
24 | CC(C)(C)c1cc(NC(=O)Nc2ccc(OCc3ccccc3)cc2)no1 [Compound G31] | – | + + + + | + + + | + + + + | – | –
25 | CC(C)(C)c1cc(NC(=O)Nc2ccc(NC(=O)c3cc4ccccc4cn3)cc2)no1 [Compound N106] | – | – | + + + + | – | > 10 | –
26 | Cn1nc(C(C)(C)C)cc1C(=O)Nc1ccc(NC(=O)Nc2cc(C(C)(C)C)on2)cc1 [Compound N10] | – | + + + + | + + + | + + + | – | –
27 | CC(C)(C)c1cc(NC(=O)Nc2ccc(NC(=O)c3ccc(Cl)cc3)cc2)no1 [Compound N26] | – | + + | + + + | + + | – | –
28 | CC(C)(C)c1cc(NC(=O)Nc2ccc(OCc3cccc(F)c3)cc2)no1 [Compound G14] | – | + + + + | + + + | + + + + | – | –
29 | Cn1nc(C(F)(F)F)c2cc(C(=O)Nc3ccc(NC(=O)Nc4cc(C(C)(C)C)on4)cc3)sc21 [Compound N64] | – | + + + + | – | + + + | > 10 | –
30 | CC(C)(C)c1cc(NC(=O)Nc2ccc(NC(=O)c3cc4cc(Br)ccc4s3)cc2)no1 [Compound N17] | + + | + + + + | – | + + + + | – | –
31 | Cc1nc(-c2cccnc2)sc1C(=O)Nc1ccc(NC(=O)Nc2cc(C(C)C)on2)cc1 [Compound N48] | + + | + + + + | – | + + + + | – | –
32 | CC(C)(C)c1cnc(CSc2cnc(NC(=O)Nc3ccon3)s2)o1 | + + | – | – | + + + | – | + + +
33 | CC(C)(C)c1cc(NC(=O)Nc2ccc(NC(=O)c3ccccc3)cc2)no1 [Compound N34] | – | + + + + | + + + + | + + + + | – | –
34 | CC(C)(C)c1cc(NC(=O)Nc2ccc(Nc3cc(N)nc(N)n3)cc2)no1 [Compound O7] | – | – | – | + + + + | > 10 | + + + +
35 | CC(C)(C)c1cc(NC(=O)Nc2ccc(NC(=O)c3ccccc3Cl)cc2)no1 [Compound N23] | + + | + + + + | – | + + + + | – | –
36 | CC(C)(C)c1cc(NC(=O)Nc2ccc(OCc3cccc(Cl)c3)cc2)no1 [Compound G11] | – | + + + + | + + + | + + + + | – | –
37 | CC(C)(C)c1cc(NC(=O)Nc2ccc(NC(=O)c3nocc3C(C)(C)C)cc2)no1 [Compound N82] | + + | – | – | + + + | – | + + +
38 | CC(C)(C)c1cc(NC(=O)Nc2ccc(N3C(=O)c4ccccc4C3=O)cc2)no1 [Compound A57] | – | – | – | + + + + | > 10 | + + +
39 | Cc1ccc(-c2nc(C(=O)Nc3ccc(NC(=O)Nc4cc(C(C)(C)C)on4)cc3)cs2)cc1 [Compound N178] | + + | – | – | + + + | – | + + + +
